Experimental data from the NIST ThermoML archive (doi:10.1021/je4007019).

Assay: molar heat capacity at constant pressure; xn = mol fraction of the nth substance listed
Details: Liquid, Large sample (1 g) DSC

CCCC [butane] + C
molar heat capacity at constant pressure [J/K/mol]
Details | 118.15 K | 128.15 K | 138.15 K | 148.15 K | 158.15 K | 168.15 K | 178.15 K
5050 kPa, x2 = 0.95 | – | – | – | 62.44 | 64.49 | 67.9 | 73.38
5150 kPa, x2 = 0.6 | 76.47 | 76.37 | 77.25 | 77.85 | 78.21 | 78.34 | –
5150 kPa, x2 = 0.88 | 61.84 | 62.6 | 63.49 | 64.92 | 66.55 | 68.32 | –

C [methane] + CCC
molar heat capacity at constant pressure [J/K/mol]
Details | 108.15 K | 118.15 K | 128.15 K | 143.15 K | 153.15 K | 163.15 K
4700 kPa, x1 = 0.81 | 59.46 | 59.69 | 60.46 | 61.47 | 62.96 | 63.63
5200 kPa, x1 = 0.82 | 59.21 | 59.52 | 60.05 | 61.36 | 62.9 | 63.97
6000 kPa, x1 = 0.81 | 57.53 | 58.6 | 59.05 | 60.8 | 62.56 | 63.41
